Results as given in patent publication US8476233B2, “Methods for treatment for ulcerative colitis in mammals” (Therapeutic Research, LLC, priority 2003, dated 2013).
Where two headings read alike, the source gives them in different places.

Legend:
[1] = test system: glutathione peroxidase (GPx); conditions: cited from earlier work
colonic mucosa = conditions: rats, 3% solution, cited from earlier work
[2] = test system: mitochondrial electron transport chain (whole chain respiration); conditions: same study as cigarette tar; cited from earlier work
ulcerative colitis = assay: Example 3: patient's response to earlier therapies; type: in vivo, human; conditions: patient history before the treatment of the invention
Text: The recurrences occurred every 3-5 months.

SMILES: N[C@@H](CCS)C(=O)O [Homocysteine, homocysteine]
- inhibition of glutathione peroxidase (GPx) activity ([1]; Outinen et al., 1999): 10 fold
- concentration of free homocysteine at which inhibition of GPx occurs ([1]; physiologic concentration, Chen, 2000): 9 µmol/L

SMILES: OO [hydrogen peroxide]
- extent of mucosal inflammation above the anus (colonic mucosa; 5 hours after injection): 5 cm
- extent of mucosal inflammation above the anus (colonic mucosa; by one week): 9 cm
- colonic outcome of rectal injection (colonic mucosa; rectal injection): acute and chronic ulcerative colitis

SMILES: CN1CCCC1c1cccnc1 (stereo not shown) [nicotine]
- effect on electron transport activity [2]: no effect

SMILES: C[C@]12C=CC(=O)C=C1CC[C@@H]1[C@@H]2C(=O)C[C@@]2(C)[C@H]1CC[C@]2(O)C(=O)CO [prednisone]
- clinical response of ulcerative colitis episodes to earlier therapy (ulcerative colitis): improved for a few months
